Data taken from patent publication US11149023B2, “Substituted triazole derivatives and uses thereof” (Bayer Pharma Aktiengesellschaft, priority 2017, dated 2021).

Experiments:
[1] = target: human V2 receptor (Homo sapiens (Human), UniProt P30518); assay: Cellular in vitro assay for determining vasopressin receptor activity (V2, CRE-luciferase); format: cell-based; details: CHO cell line transfected with human V2 receptor; [Arg8]-vasopressin at EC50 concentration; read-out: IC50 hV2
Experimental: (§1) B-1. Cellular In Vitro Assay for Determining Vasopressin Receptor Activity
(§2) The identification of agonists and antagonists of the V1a and V2 vasopressin receptors from humans, rats and dogs as well as the quantification of the activity of the compounds of the invention is carried out using recombinant cell lines. These cell lines originally derive from a hamster's ovary epithelial cell (Chinese Hamster Ovary, CHO K1, ATCC: American Type Culture Collection, Manassas, Va. 20108, USA). The test cell lines constitutively express the human, rat or dog V1a or V2 receptors. In case of the Gαq-coupled V1a receptors, cells are also stably transfected with a modified form of the calcium-sensitive photoproteins aequorin (human and rat V1a) or obe-lin (dog V1a), which, after reconstitution with the cofactor coelenterazine, emit light when there are increases in free calcium concentrations [Rizzuto R, Simpson A W, Brini M, Pozzan T, Nature 358, 325-327 (1992); Illarionov B A, Bondar V S, Illarionova V A, Vysotski E S, Gene 153 (2), 273-274 (1995)]. The resulting vasopressin receptor cells react to stimulation of the recombinantly expressed Via receptors by intracellular release of calcium ions, which can be quantified by the resulting photoprotein luminescence. The Gs-coupled V2 receptors are stably transfected into cell lines expressing the gene for firefly luciferase under control of a CRE-responsible promoter. Activation of V2 receptors induces the activation of the CRE-responsive promoter via cAMP increase, thereby inducing the expression of firefly luciferase. The light emitted by photoproteins of V1a cell lines as well as the light emitted by firefly luciferase of V2 cell lines corresponds to the activation or inhibition of the respective vasopressin receptor. The bioluminescence of the cell lines is detected using a suitable luminometer [Milligan G, Marshall F, Rees S, Trends in Pharmacological Sciences 17, 235-237 (1996)].
Vasopressin V2 Receptor Cell Lines:
On the day before the assay, the cells are plated out in culture medium (DMEM/F12, 2% FCS, 2 mM glutamine, 10 mM HEPES) in 384-well microtiter plates and kept in a cell incubator (96% humidity, 5% v/v CO2, 37° C.). On the day of the assay, test compounds in various concentrations and the agonist [Arg^8]-vasopressin at EC50 concentration are added together to the wells, and plates are incubated for 3 hours in a cell incubator. Upon addition of the cell lysis reagent Triton™ and the substrate luciferin, luminescence of firefly luciferase is measured in a luminometer.
(§3) Table 1A below lists individual IC50 values for the compounds of the invention (including racemic mixtures as well as separated enantiomers) that were obtained from cell lines transfected with the human Via or V2 receptor: […]

[2] = target: human V1a receptor (Homo sapiens (Human), UniProt P37288); assay: Cellular in vitro assay for determining vasopressin receptor activity (V1a, aequorin luminescence); format: cell-based; details: for IC50: CHO cell line transfected with human V1a receptor, [Arg8]-vasopressin at EC50 concentration, read-out: IC50 hV1a; for ratio IC50 hV2/hV1a: selectivity, IC50 hV2 divided by IC50 hV1a
Chain of human V1a receptor (P37288 whole entry): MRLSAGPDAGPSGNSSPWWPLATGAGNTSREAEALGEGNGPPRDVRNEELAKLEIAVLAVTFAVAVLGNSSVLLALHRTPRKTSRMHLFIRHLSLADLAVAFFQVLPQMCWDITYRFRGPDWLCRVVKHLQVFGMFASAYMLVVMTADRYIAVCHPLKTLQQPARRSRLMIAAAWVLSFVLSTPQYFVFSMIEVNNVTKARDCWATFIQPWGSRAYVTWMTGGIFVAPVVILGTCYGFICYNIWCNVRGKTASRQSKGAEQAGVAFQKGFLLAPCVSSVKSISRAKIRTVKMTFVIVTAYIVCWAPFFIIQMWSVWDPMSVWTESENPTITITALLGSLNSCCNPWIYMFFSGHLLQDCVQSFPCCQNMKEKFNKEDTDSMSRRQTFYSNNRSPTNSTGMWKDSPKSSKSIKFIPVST
Experimental: as §1, §2
Vasopressin V1a Receptor Cell Lines:
On the day before the assay, the cells are plated out in culture medium (DMEM/F12, 2% FCS, 2 mM glutamine, 10 mM HEPES, 5 μg/ml coelenterazine) in 384-well microtiter plates and kept in a cell incubator (96% humidity, 5% v/v CO2, 37° C.). On the day of the assay, test compounds in various concentrations are placed for 10 minutes in the wells of the microtiter plate before the agonist [Arg^8]-vasopressin at EC50 concentration is added. The resulting light signal is measured immediately in a luminometer.
as §3

Chain of human V2 receptor (P30518 whole entry): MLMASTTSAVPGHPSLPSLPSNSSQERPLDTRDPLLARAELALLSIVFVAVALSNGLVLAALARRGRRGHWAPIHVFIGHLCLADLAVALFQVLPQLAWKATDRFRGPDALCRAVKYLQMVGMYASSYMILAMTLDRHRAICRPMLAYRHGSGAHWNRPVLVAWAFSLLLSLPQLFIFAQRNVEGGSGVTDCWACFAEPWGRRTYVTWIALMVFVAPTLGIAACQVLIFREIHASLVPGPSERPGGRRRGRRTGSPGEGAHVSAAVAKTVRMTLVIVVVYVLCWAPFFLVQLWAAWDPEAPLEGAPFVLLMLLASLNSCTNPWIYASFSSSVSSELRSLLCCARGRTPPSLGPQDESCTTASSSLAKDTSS

| Structure (SMILES) | IC50 [1] [nM] | IC50 [2] [nM] | ratio IC50 hV2/hV1a [2] |
| --- | --- | --- | --- |
| O=C(CCC(F)(F)F)NC(Cn1c(-c2ccc(Cl)cc2)nn(Cc2ncn(-c3ncccc3Cl)n2)c1=O)C(F)(F)F (single isomer, unassigned) [Example 33, N-{3-[3-(4-Chlorophenyl)-1-{[1-(3-chloropyridin-2-yl)-1H-1,2,4-triazol-3-yl]methyl}-5-oxo-1,5-dihydro-4H-1,2,4-triazol-4-yl]-1,1,1-trifluoropropan-2-yl}-4,4,4-trifluorobutanamide] | 5600 | 215 | – |
| O=C1CC[C@@H](C(=O)NC(Cn2c(-c3ccc(Cl)cc3)nn(Cc3ncn(-c4ncccc4Cl)n3)c2=O)C(F)(F)F)N1 (single isomer, unassigned) [Example 36, N-{3-[3-(4-Chlorophenyl)-1-{[1-(3-chloropyridin-2-yl)-1H-1,2,4-triazol-3-yl]methyl}-5-oxo-1,5-dihydro-4H-1,2,4-triazol-4-yl]-1,1,1-trifluoropropan-2-yl}-5-oxo-L-prolinamide] | 890 | 3.5 | 254.3 |
| N#CC1(C(=O)NC(Cn2c(-c3ccc(Cl)cc3)nn(Cc3ncn(-c4ncccc4C(F)(F)F)n3)c2=O)C(F)(F)F)CC1 (racemic) [Example 65, N-{3-[3-(4-Chlorophenyl)-5-oxo-1-({1-[3-(trifluoromethyl)pyridin-2-yl]-1H-1,2,4-triazol-3-yl}methyl)-1,5-dihydro-4H-1,2,4-triazol-4-yl]-1,1,1-trifluoropropan-2-yl}-1-cyanocyclopropane-1-carboxamide] | 490 | 9.1 | 53.8 |
| O=C(NC(Cn1c(-c2ccc(Cl)cc2)nn(Cc2ncn(-c3ncccc3Cl)n2)c1=O)C(F)(F)F)C1CCNC1 (centres unmarked) [Example 24, N-{3-[3-(4-Chlorophenyl)-1-{[1-(3-chloropyridin-2-yl)-1H-1,2,4-triazol-3-yl]methyl}-5-oxo-1,5-dihydro-4H-1,2,4-triazol-4-yl]-1,1,1-trifluoropropan-2-yl}pyrrolidine-3-carboxamide] | 708 | 4.4 | 160.8 |
| COCC(=O)NC(Cn1c(-c2ccc(Cl)cc2)nn(Cc2ncn(-c3ncccc3Cl)n2)c1=O)C(F)(F)F (racemic) [Example 6, N-{3-[3-(4-Chlorophenyl)-1-{[1-(3-chloropyridin-2-yl)-1H-1,2,4-triazol-3-yl]methyl}-5-oxo-1,5-dihydro-4H-1,2,4-triazol-4-yl]-1,1,1-trifluoropropan-2-yl}-2-methoxyacetamide] | 630 | 5.65 | 111.5 |
| CC(C)(C)OC(=O)N1CCC1C(=O)NC(Cn1c(-c2ccc(Cl)cc2)nn(Cc2ncn(-c3ncccc3Cl)n2)c1=O)C(F)(F)F (centres unmarked) [Example 56, tert-Butyl 2-({3-[3-(4-chlorophenyl)-1-{[1-(3-chloropyridin-2-yl)-1H-1,2,4-triazol-3-yl]methyl}-5-oxo-1,5-dihydro-4H-1,2,4-triazol-4-yl]-1,1,1-trifluoropropan-2-yl}carbamoyl)azetidine-1-carboxylate] | 1030 | 8.1 | 126.8 |

Compounds with a lower IC50 [1], results first:

| IC50 [1] [nM] | IC50 [2] [nM] | ratio IC50 hV2/hV1a [2] | Structure (SMILES) |
| --- | --- | --- | --- |
| 78.5 | 2.05 | 38.3 | O=C(NC(Cn1c(-c2ccc(Cl)cc2)nn(Cc2ncn(-c3ncccc3Cl)n2)c1=O)C(F)(F)F)C1CC(F)(F)C1 (racemic) [Example 15, N-{3-[3-(4-Chlorophenyl)-1-{[1-(3-chloropyridin-2-yl)-1H-1,2,4-triazol-3-yl]methyl}-5-oxo-1,5-dihydro-4H-1,2,4-triazol-4-yl]-1,1,1-trifluoropropan-2-yl}-3,3-difluorocyclobutanecarboxamide] |
| 220 | 12.4 | 17.7 | O=C(NC(Cn1c(-c2ccc(Cl)cc2)nn(Cc2ncn(-c3ncccc3Cl)n2)c1=O)C(F)(F)F)C1CC1 (racemic) [Example 14, N-{3-[3-(4-Chlorophenyl)-1-{[1-(3-chloropyridin-2-yl)-1H-1,2,4-triazol-3-yl]methyl}-5-oxo-1,5-dihydro-4H-1,2,4-triazol-4-yl]-1,1,1-trifluoropropan-2-yl}cyclopropanecarboxamide] |
| 140 | 5.05 | 27.7 | CC(=O)OC(C)(C)C(=O)NC(Cn1c(-c2ccc(Cl)cc2)nn(Cc2ncn(-c3ncccc3Cl)n2)c1=O)C(F)(F)F (racemic) [Example 16, 1-({3-[3-(4-Chlorophenyl)-1-{[1-(3-chloropyridin-2-yl)-1H-1,2,4-triazol-3-yl]methyl}-5-oxo-1,5-dihydro-4H-1,2,4-triazol-4-yl]-1,1,1-trifluoropropan-2-yl}amino)-2-methyl-1-oxopropan-2-yl acetate] |
| 82.5 | 9.15 | 9.0 | CC(C)(C)OC(=O)NC1(C(=O)NC(Cn2c(-c3ccc(Cl)cc3)nn(Cc3ncn(-c4ncccc4Cl)n3)c2=O)C(F)(F)F)CC1 (racemic) [Example 26, tert-Butyl [1-({3-[3-(4-chlorophenyl)-1-{[1-(3-chloropyridin-2-yl)-1H-1,2,4-triazol-3-yl]methyl}-5-oxo-1,5-dihydro-4H-1,2,4-triazol-4-yl]-1,1,1-trifluoropropan-2-yl}carbamoyl)cyclopropyl]-carbamate] |
| 45.5 | 1.2 | 37.9 | O=C(CC(F)(F)F)NC(Cn1c(-c2ccc(Cl)cc2)nn(Cc2ncn(-c3ncccc3Cl)n2)c1=O)C(F)(F)F (racemic) [Example 11, N-{3-[3-(4-Chlorophenyl)-1-{[1-(3-chloropyridin-2-yl)-1H-1,2,4-triazol-3-yl]methyl}-5-oxo-1,5-dihydro-4H-1,2,4-triazol-4-yl]-1,1,1-trifluoropropan-2-yl}-3,3,3-trifluoropropanamide] |
| 130 | 1.65 | 78.8 | O=C(NC(Cn1c(-c2ccc(Cl)cc2)nn(Cc2ncn(-c3ncccc3Cl)n2)c1=O)C(F)(F)F)C1CC1(F)F (centres unmarked) [Example 7, N-{3-[3-(4-Chlorophenyl)-1-{[1-(3-chloropyridin-2-yl)-1H-1,2,4-triazol-3-yl]methyl}-5-oxo-1,5-dihydro-4H-1,2,4-triazol-4-yl]-1,1,1-trifluoropropan-2-yl}-2,2-difluorocyclopropanecarboxamide] |
| 150 | 4.05 | 37.0 | O=C(NC(Cn1c(-c2ccc(Cl)cc2)nn(Cc2ncn(-c3ncccc3Cl)n2)c1=O)C(F)(F)F)C1(O)CC1 (racemic) [Example 22, N-{3-[3-(4-Chlorophenyl)-1-{[1-(3-chloropyridin-2-yl)-1H-1,2,4-triazol-3-yl]methyl}-5-oxo-1,5-dihydro-4H-1,2,4-triazol-4-yl]-1,1,1-trifluoropropan-2-yl}-1-hydroxycyclopropanecarboxamide] |
| 165 | 3.9 | 42.3 | CC(C)(C)OC(=O)N1CC(F)(F)C1C(=O)NC(Cn1c(-c2ccc(Cl)cc2)nn(Cc2ncn(-c3ncccc3Cl)n2)c1=O)C(F)(F)F (centres unmarked) [Example 54, tert-Butyl 2-({3-[3-(4-chlorophenyl)-1-{[1-(3-chloropyridin-2-yl)-1H-1,2,4-triazol-3-yl]methyl}-5-oxo-1,5-dihydro-4H-1,2,4-triazol-4-yl]-1,1,1-trifluoropropan-2-yl}carbamoyl)-3,3-difluoro-azetidine-1-carboxylate] |
